Drawing on US6620838B1, “Benzopyrazone compounds, compositions thereof, and methods of treatment therewith” (Signal Pharmaceuticals, Inc., priority 2002, dated 2003), this text covers IC50 for 5 compounds.

Holding throughout (format): cell-based
The test system of experiment [1] is IL-6 release from human U-2 OS osteosarcoma cells stably transfected with human ER-α or ER-β. Kind of experiment: Inhibition of IL-6 release. Particulars: U2OS, U-2 OS cells with ER-α or ER-β (table does not say which), stimulated with 2.5 ng/ml TNFα and 1 ng/ml IL-1β, IL-6 ELISA after 24 h. Here is the method: Illustrative benzopyranone compounds were tested for their ability to inhibit IL-6 release from human U-2 OS osteosarcoma cells stably transfected with human ER-α or ER-β. (Stein, B.; Yang, M. X. Mol. Cell. Biol 15: 4971-4979, 1995; Poli, V. et. al., EMBO J. 13:1189-1196, 1994). […] Benzopyranone compounds having an IC50<100 nM are particularly useful as bone resorption inhibitors in vivo. Accordingly, the compounds of this assay, illustrative benzopyranone compounds, are particularly useful for the treatment of osteoporosis, Paget's disease and metastatic bone cancer. These compounds are also useful as anti-cancer agents as elevated IL-6 levels are responsible for certain cancers such as multiple myeloma, prostate cancer, ovarian cancer, renal carcinoma and cervical carcinoma.
Human U-2 OS osteosarcoma cells (ATCC) were stably transfected with expression vectors for human full-length ER-α or ER-β, respectively, using standard molecular biology techniques. Stable subclones were generated that expressed high levels of ER-α or ER-β mRNA. The expression of ER-α and ER-β was confirmed using RNase protection analysis.
Cells were plated into 96-well plates at a density of 80,000 cells per well in phenol red-free media with charcoal-stripped fetal calf serum. Twenty four hours later, cells were either treated with vehicle (0.2% DMSO) or test compound ([…] in 0.2% DMSO). Thirty minutes later cells were stimulated with 2.5 ng/ml TNFα and 1 ng/ml IL-1β. Twenty-four hours later the media supernatant was analyzed for cytokine production (IL-6) using commercially available ELISA kits following the manufacturer's instructions. Cytokine production in the presence of vehicle (0.2% DMSO) was set to 100%. The results are expressed as IC50 (nM) values (Table 2) which is the concentration of the benzopyranone compound necessary to inhibit the production of IL-6 50% relative to the amount of IL-6 produced in the presence of vehicle.

The test system of experiment [2] is MCF-7 breast cancer cells. Kind of experiment: Inhibition of MCF-7 breast cancer cell proliferation. Particulars: Homo sapiens, MCF7; 17β-estradiol (0.1 nM)-dependent growth, 72 h, 3H-thymidine incorporation. Here is the method: MCF-7 cells represent an excellent in vitro system to study the effects of compounds on estrogen-dependent breast cancer growth. (May, F. E. B.; Westley, B. R. J. Biol. Chem. 262:15894-15899, 1987). Benzopyranone compounds having an IC50<100 nM are particularly useful as anti-breast cancer agents in vivo.
MCF-7 breast carcinoma cells were plated in 24-well dishes at a density of 5×10^3 cells/well in phenol-red free DMEM:F-12 (1:1) medium containing 1% antibiotics, 0.05% mercaptoethanol, 0.01% ethanolamine, 0.42 ng/mL sodium selenite and 5% charcoal-stripped FCS.
Illustrative benzopyranone compounds (0.1-1000 nM in 0.2% DMSO) and 0.1 nM 17β-estradiol were added to the cultured MCF-7 breast cancer cells for 72 h. Subsequently, ^3H-labeled thymidine was added and its incorporation into cells was measured following 4 h incubation. The results are expressed as IC50 (nM) values (Table 2) which is the concentration of the benzopyranone compound necessary to inhibit the growth of MCF-7 breast cancer cells by 50% relative to controls.

For experiment [3], the system named is BG-1 ovarian carcinoma cells. Kind of experiment: Inhibition of BG-1 ovarian carcinoma cell proliferation. The settings on record: 17β-estradiol (0.1 nM)-dependent growth, 72 h, 3H-thymidine incorporation. As for the experimental part: BG-1 cells serve as a useful in vitro model for the evaluation of the effects of antiestrogenic compounds on ovarian tumor growth (Greenberger, L. M. et. al., Clin. Cancer Res. 7:3166-3177, 2001). Benzopyranone compounds having an IC50<100 nM are particularly useful as anti-ovarian cancer agents in vivo.
BG-1 ovarian carcinoma cells were plated in 24-well dishes at a density of 5×10^3 cells/well in phenol-red free DMEM:F-12 (1:1) medium containing 1% antibiotics, 0.05% mercaptoethanol, 0.01% ethanolamine, 0.42 ng/mL sodium selenite and 5% charcoal-stripped FCS. Illustrative benzopyranone compounds (0.1-1000 nM in 0.2% DMSO) and 0.1 nM 17β-estradiol were added to the cultured BG-1 ovarian carcinoma cells and incubated for 72 h. Subsequently, ^3H-labeled thymidine was added and its incorporation into cells was measured following 4h incubation. The results are expressed as IC50 (nM) values (Table 2) which is the concentration of the benzopyranone compound necessary to inhibit the growth of BG-1 ovarian carcinoma cells by 50% relative to controls.
Background: Dividing cells build labelled thymidine or BrdU into new DNA.

SMILES strings stand for the structures.

Take `O=c1oc2cc(O)ccc2c(Cc2ccc(OCCN3CCCC3)cc2)c1-c1ccc(Cl)cc1C(F)(F)F`: the IC50 – broadly, the concentration needed to halve the response being measured – in experiment [1] was determined as 0.45 nM; in experiment [2] it was 4.1 nM; in experiment [3], 3.2 nM.

`C=C/C(=C\C=C\OCCN1CCCC1)Cc1c(-c2ccc(C(F)(F)F)cc2)c(=O)oc2cc(O)ccc12`: the IC50 worked out at 1.45 nM in experiment [1], 15.8 nM in experiment [2] and 9.35 nM in experiment [3].

Take `O=c1oc2cc(O)ccc2c(Cc2ccc(OCCN3CCCC3)cc2)c1-c1ccc(C(F)(F)F)cc1Cl`: the IC50 in experiment [1] came out at 0.4 nM; in experiment [2], 5.5 nM; in experiment [3], 3.4 nM.

`O=c1oc2cc(O)ccc2c(Cc2ccc(OCCN3CCCC3)cc2)c1-c1ccc(C(F)(F)F)cc1C(F)(F)F`: the IC50 in experiment [1] was 0.41 nM; in experiment [2] it was 19 nM; in experiment [3], 6.6 nM.

Regarding `O=c1oc2cc(O)ccc2c(Cc2ccc(OCCN3CCCC3)cc2)c1-c1ccc(Cl)cc1Cl`, the IC50 in experiment [1] stood at 0.32 nM; in experiment [2] it was 5.4 nM; in experiment [3] it was 0.69 nM.
